Source: EPA's ToxRefDB 2

Assays:
[1] = tested on: mouse; conditions: Combined chronic toxicity/carcinogenicity, b6c3f1, Oral, Feed, dose end: 78 week, group: systemic
[2] = tested on: rat; conditions: Combined chronic toxicity/carcinogenicity; fischer; Oral; Feed; dose end: 78 week; group: systemic; systemic / pathology microscopic / spleen / fibrosis
[3] = tested on: mouse; conditions: Prenatal developmental toxicity study, cd1, Oral, Gavage/Intubation, dose end: 15 GD
[4] = tested on: rabbit; conditions: Prenatal developmental toxicity study, new zealand white, Oral, Gavage/Intubation, dose end: 19 GD, group: maternal
[5] = tested on: rat; conditions: Prenatal developmental toxicity study, wistar, Oral, Gavage/Intubation, dose end: 15 GD
[6] = tested on: mouse; conditions: Carcinogenicity, other, Oral, [Not Specified], dose end: 104 week, group: systemic
[7] = tested on: dog; conditions: Chronic toxicity, beagle, Oral, Feed, dose end: 80 day, group: systemic
[8] = tested on: dog; conditions: Subchronic oral toxicity in nonrodent, beagle, Feed, dose end: 90 day, group: systemic, systemic / hematology / methemoglobin / methemoglobin
[9] = tested on: rat; conditions: Subchronic oral toxicity in rodents, wistar, Feed, dose end: 13 week, group: systemic
[10] = tested on: rat; conditions: Prenatal developmental toxicity study, wistar, Oral, Gavage/Intubation, dose end: 15 GD; remark: listed apart in the source
[11] = tested on: rat; conditions: Subchronic oral toxicity in rodents, wistar, Feed, dose end: 13 week
[12] = tested on: rabbit; conditions: Prenatal developmental toxicity study, chinchilla, Oral, Gavage/Intubation, dose end: 27 GD
[13] = tested on: rat; conditions: Combined chronic toxicity/carcinogenicity, sprague dawley, Oral, Feed, dose end: 104 week
[14] = tested on: rat; conditions: Multigenerational reproductive toxicity study, other, Oral, Feed, dose end: 2 generation
[15] = tested on: dog; conditions: Chronic toxicity, beagle, Oral, Feed, dose end: 52 week, group: systemic
[16] = tested on: rat; conditions: Combined chronic toxicity/carcinogenicity, wistar, Oral, Feed, dose end: 106 week, group: systemic
[17] = tested on: rat; conditions: Combined chronic toxicity/carcinogenicity, other, Oral, Feed, dose end: 104 week, group: systemic
[18] = tested on: rat; conditions: Multigenerational reproductive toxicity study, sprague dawley, Oral, Feed, dose end: 2 generation
[19] = tested on: mouse; conditions: Carcinogenicity, cd1, Oral, Feed, dose end: 78 week, group: systemic
[20] = tested on: rat; conditions: Subchronic oral toxicity in rodents, sprague dawley, Feed, dose end: 90 day, group: systemic
[21] = systemic / in life observation / body weight / body weight
[22] = systemic / in life observation / body weight / body weight + systemic / pathology microscopic / spleen / hemangiosarcoma
[23] = group: developmental, systemic / in life observation / body weight / fetal weight
[24] = group: maternal, reproductive / reproductive performance / resorptions / resorptions + systemic / in life observation / body weight / body weight gain + …
[25] = systemic / in life observation / mortality / mortality + reproductive / reproductive performance / premature delivery / premature delivery
[26] = group: developmental, developmental / developmental malformation / bone / absent + developmental / developmental malformation / bone / bipartite ossification + …
[27] = group: maternal, systemic / in life observation / body weight / body weight gain + systemic / in life observation / food consumption / food consumption
[28] = systemic / hematology / anemia / anemia - heinz body + systemic / in life observation / body weight / body weight
[29] = systemic / hematology / methemoglobin / methemoglobin
[30] = systemic / hematology / methemoglobin / methemoglobin + systemic / urinalysis / appearance and color / appearance and color
[31] = systemic / clinical chemistry / thyroxine (t4) / thyroxine (t4), total + systemic / hematology / methemoglobin / methemoglobin + systemic / …
[32] = group: developmental, developmental / developmental malformation / bone / incomplete ossification + developmental / developmental malformation / bone / unossified…
[33] = group: maternal, systemic / hematology / methemoglobin / methemoglobin
[34] = group: maternal, systemic / hematology / methemoglobin / methemoglobin + systemic / hematology / heinz body / heinz body + systemic / in life observation / …
[35] = group: cholinesterase, cholinesterase / cholinesterase / cholinesterase / brain cholinesterase (che) + cholinesterase / cholinesterase / cholinesterase / …
[36] = group: systemic, systemic / hematology / anemia / anemia - macrocytic + systemic / hematology / erythrocyte (rbc) count differential / erythrocyte (rbc) + …
[37] = group: developmental, systemic / in life observation / body weight / fetal weight + developmental / developmental malformation / bone / unossified
[38] = group: maternal, systemic / in life observation / body weight / body weight gain + systemic / in life observation / food consumption / food consumption + …
[39] = group: cholinesterase, cholinesterase / cholinesterase / cholinesterase / brain cholinesterase (che)
[40] = group: cholinesterase, cholinesterase / cholinesterase / cholinesterase / erythrocyte cholinesterase (che) + cholinesterase / cholinesterase / cholinesterase / …
[41] = group: systemic, systemic / hematology / erythrocyte (rbc) count differential / erythrocyte (rbc) + systemic / hematology / hematocrit (hct) / hematocrit (…
[42] = group: offspring, systemic / organ weight / kidney / relative to body weight + systemic / organ weight / liver / relative to body weight
[43] = group: parental, systemic / organ weight / spleen / absolute + systemic / organ weight / spleen / relative to body weight + systemic / hematology / anemia / …
[44] = group: parental, systemic / organ weight / spleen / absolute + systemic / organ weight / spleen / relative to body weight + systemic / in life observation / …
[45] = group: reproductive, reproductive / offspring survival early / litter size / litter size
[46] = systemic / hematology / methemoglobin / methemoglobin + systemic / clinical chemistry / triiodothyronine (t3) / triiodothyronine (t3), total
[47] = systemic / hematology / anemia / anemia - hemolytic + systemic / hematology / erythrocyte (rbc) count differential / erythrocyte (rbc) + …
[48] = systemic / pathology microscopic / thyroid gland / hyperplasia
[49] = systemic / pathology microscopic / liver / vacuolization
[50] = systemic / pathology microscopic / liver / vacuolization + systemic / pathology microscopic / liver / hyperplasia + systemic / pathology …
[51] = group: offspring, systemic / in life observation / body weight / offspring (pup) weight + systemic / in life observation / body weight / offspring (pup) …
[52] = group: parental, systemic / in life observation / body weight / body weight + systemic / in life observation / body weight / body weight gain + systemic / …
[53] = systemic / pathology microscopic / liver / hypertrophy + systemic / pathology microscopic / liver / necrosis
[54] = systemic / pathology microscopic / liver / hypertrophy + systemic / pathology microscopic / liver / necrosis + systemic / pathology …
[55] = systemic / clinical chemistry / alanine aminotransferase (alt/sgpt) / alanine aminotransferase (alt/sgpt) + systemic / clinical chemistry / …

`Nc1ccc(Cl)cc1` [4-Chloroaniline] was tested, and the LOAEL [1, 21] was 375 mg/kg/day, the NOAEL [1, 21] was under 375 mg/kg/day and the LEL [1, 22] was 375 mg/kg/day. It also gave an NEL [1, 22] of under 375 mg/kg/day, an LEL [2] of 12.5 mg/kg/day and an LOAEL [2] of 12.5 mg/kg/day. It also gave an NEL [2] of under 12.5 mg/kg/day and an NOAEL [2] of under 12.5 mg/kg/day.
Compound `[O]=[Cr](=[O])([OH])[OH]` [Chromic(VI) acid] has an LEL [3, 23] of 120 mg/kg/day, an LOAEL [3, 23] of over 120 mg/kg/day and an NEL [3, 23] of 60 mg/kg/day. The NOAEL [3, 23] was at least 120 mg/kg/day, the LEL [3, 24] was 120 mg/kg/day and the LOAEL [3, 24] was 120 mg/kg/day. The NEL [3, 24] was 60 mg/kg/day, the NOAEL [3, 24] was 60 mg/kg/day and the LOAEL ([4]; systemic / in life observation / mortality / mortality) was 2 mg/kg/day. It also gave an LEL [4, 25] of 2 mg/kg/day, an NEL [4, 25] of 0.5 mg/kg/day and an NOAEL [4, 25] of 0.5 mg/kg/day.
`CCOC(=O)Nc1cccc(OC(=O)Nc2ccccc2)c1` [Desmedipham] gave an LEL [5, 26] of 1000 mg/kg/day, an LOAEL [5, 26] of 1000 mg/kg/day and an NEL [5, 26] of 100 mg/kg/day. For the same compound, the NOAEL [5, 26] was 100 mg/kg/day, the LEL [5, 27] was 1000 mg/kg/day and the LOAEL [5, 27] was 1000 mg/kg/day. It also gave an NEL [5, 27] of 100 mg/kg/day, an NOAEL [5, 27] of 100 mg/kg/day and an LOAEL ([6]; systemic / hematology / anemia / anemia - heinz body) of 109 mg/kg/day. For the same compound, the LEL [6, 28] was 109 mg/kg/day, the NEL [6, 28] was 21.7 mg/kg/day and the NOAEL [6, 28] was 21.7 mg/kg/day. The LOAEL [7, 29] was 12.5 mg/kg/day, the NOAEL [7, 29] was under 12.5 mg/kg/day and the LEL [7, 30] was 12.5 mg/kg/day. It also gave an NEL [7, 30] of under 12.5 mg/kg/day, an LEL [8] of 4.97 mg/kg/day and an LOAEL [8] of 4.97 mg/kg/day. The NEL [8] was 0.17 mg/kg/day, the NOAEL [8] was 0.17 mg/kg/day and the LOAEL [9, 31] was 26 mg/kg/day. It also gave an NOAEL [9, 31] of 5.2 mg/kg/day, an LEL [9, 29] of 5.2 mg/kg/day and an NEL ([9]; systemic / hematology / methemoglobin / methemoglobin + systemic / clinical chemistry / thyroxine (t4) / thyroxine (t4), total + systemic / …) of 2.6 mg/kg/day. For the same compound, the LEL [10, 32] was 500 mg/kg/day, the LOAEL [10, 32] was 500 mg/kg/day and the NEL [10, 32] was 100 mg/kg/day. It also gave an NOAEL [10, 32] of 100 mg/kg/day, an LEL [10, 33] of 100 mg/kg/day and an LOAEL [10, 33] of 100 mg/kg/day. It also gave an NEL [10, 34] of 10 mg/kg/day, an NOAEL [10, 34] of 10 mg/kg/day and an LEL [11, 35] of 15 mg/kg/day. For the same compound, the LOAEL [11, 35] was 15 mg/kg/day, the NEL [11, 35] was under 15 mg/kg/day and the NOAEL [11, 35] was under 15 mg/kg/day. The LEL [11, 36] was 15 mg/kg/day, the LOAEL [11, 36] was 15 mg/kg/day and the NEL [11, 36] was under 15 mg/kg/day. It also gave an NOAEL [11, 36] of under 15 mg/kg/day, an LEL [12, 37] of 450 mg/kg/day and an LOAEL [12, 37] of 450 mg/kg/day. It also gave an NEL [12, 37] of 150 mg/kg/day, an NOAEL [12, 37] of 150 mg/kg/day and an LOAEL ([12]; group: maternal, systemic / in life observation / body weight / body weight gain) of 450 mg/kg/day. It also gave an LEL [12, 38] of 450 mg/kg/day, an NEL [12, 38] of 150 mg/kg/day and an NOAEL [12, 38] of 150 mg/kg/day. The LOAEL [13, 39] was over 54 mg/kg/day, the NOAEL [13, 39] was at least 54 mg/kg/day and the LEL [13, 40] was 25 mg/kg/day. The NEL [13, 40] was 5.9 mg/kg/day, the LOAEL [13, 41] was 54 mg/kg/day and the NEL [13, 41] was 4.7 mg/kg/day. The NOAEL [13, 41] was 18 mg/kg/day, the LEL ([13]; group: systemic, systemic / pathology microscopic / lung / focal cellular change + systemic / pathology microscopic / seminal vesicle / secretory fluid) was 18 mg/kg/day and the LOAEL ([14]; group: offspring, systemic / in life observation / body weight / offspring (pup) weight) was 110 mg/kg/day. For the same compound, the NOAEL ([14]; group: offspring, systemic / in life observation / body weight / offspring (pup) weight + systemic / organ weight / heart / absolute + systemic / organ weight…) was 20 mg/kg/day, the LEL [14, 42] was 4 mg/kg/day and the NEL [14, 42] was under 4 mg/kg/day. The LEL [14, 43] was 20 mg/kg/day, the LOAEL [14, 43] was 20 mg/kg/day and the NEL [14, 44] was 4 mg/kg/day. The NOAEL [14, 44] was 4 mg/kg/day, the LEL [14, 45] was 110 mg/kg/day and the LOAEL [14, 45] was over 110 mg/kg/day. The NEL [14, 45] was 20 mg/kg/day, the NOAEL [14, 45] was at least 110 mg/kg/day and the LOAEL [15, 29] was 9.6 mg/kg/day. For the same compound, the NOAEL [15, 29] was under 9.6 mg/kg/day, the LEL [15, 46] was 9.6 mg/kg/day and the NEL [15, 46] was under 9.6 mg/kg/day. The LOAEL [16, 47] was 16.1 mg/kg/day, the NOAEL [16, 47] was 3.3 mg/kg/day and the LEL [16, 48] was 3.18 mg/kg/day. The NEL [16, 48] was under 3.18 mg/kg/day.
`CCOC(=O)COc1cc(-c2nn(C)c(OC(F)F)c2Cl)c(F)cc1Cl` [Pyraflufen-ethyl] showed an LEL [17, 49] of 86.7 mg/kg/day, an LOAEL [17, 49] of 86.7 mg/kg/day and an NEL [17, 50] of 17.2 mg/kg/day. The NOAEL [17, 50] was 17.2 mg/kg/day, the LEL [18, 51] was 721 mg/kg/day and the LOAEL [18, 51] was 721 mg/kg/day. It also gave an NEL [18, 51] of 70.8 mg/kg/day, an NOAEL [18, 51] of 70.8 mg/kg/day and an LEL [18, 52] of 721 mg/kg/day. It also gave an LOAEL [18, 52] of 721 mg/kg/day, an NEL [18, 52] of 70.8 mg/kg/day and an NOAEL [18, 52] of 70.8 mg/kg/day. It also gave an LEL [19, 53] of 98.3 mg/kg/day, an LOAEL [19, 53] of 98.3 mg/kg/day and an NEL [19, 54] of 19.6 mg/kg/day. The NOAEL [19, 54] was 19.6 mg/kg/day, the LOAEL [20, 55] was 1490 mg/kg/day and the NEL [20, 55] was 85.6 mg/kg/day. It also gave an NOAEL [20, 55] of 456 mg/kg/day and an LEL ([20]; systemic / organ weight / brain / relative to body weight) of 456 mg/kg/day.
